Reference: patent US20130143256A1, “LIQUID-BASED METHOD FOR PRODUCING PLANT EMBRYOS” (ArborGen Inc., priority 2006, published 2013)

Tests used:
Assay type in all cases: cell-based, loblolly pine
cell line B = experiment: Effect of maltose on embryo production in liquid EDM, cell line B; settings: for Total Avg. Potential Embryos: 30 ml
Description: (§1) Suspension cultures of the following four loblolly pine genotypes, I, B, M, and N, were tested. Each cell line or genotype was initiated from an individual immature seed explant derived from a control pollinated cross of select parent trees of loblolly pine. Five variations in the Liquid EDM listed in Table 1 were tested for development of loblolly pine somatic embryos in liquid. The five treatments were coded 1, 2, 3, 4 and 5 according to the concentration of maltose in the liquid medium, 0, 10, 20, 40 and 60 g/l, respectively. The proliferating embryogenic suspension cultures were poured in the side arm of the flask for 30 minutes to measure the settled cell volume (SCV) as described in example 2. A sub-sample of 12 ml of proliferating liquid suspension was removed for baseline development plating on five plates of MSG gelled embryo development medium for comparative purposes. The SCV measurement was recorded and the proliferating liquid suspensions were distributed among the treatments listed above. Each treatment flask was initiated by placing 15 milliliters of 100% SCV onto a raft placed on a Buchner funnel and the excess liquid was removed through gentle vacuum aspiration. The tissues were then re-suspended into a 250 ml sidearm flask with 30 milliliters of Liquid Embryo Development Media with various maltose concentrations (from 0 to 60 g/l). Once the cultures were re-suspended in liquid EDM the suspensions were poured in the sidearm to settle in the sidearm for thirty minutes to measure the SCV. Each treatment had three replicate flasks. The SCV measurements were recorded and the flasks were placed on the shaker in the dark, 24° C. growth chamber and monitored on a weekly basis for five weeks as described below. the liquid embryo development suspensions were poured into the sidearm and allowed to settle in the sidearm for 30 minutes and the SCV measured and recorded. Each flask was sub-cultured as needed by adding liquid EDM to maintain the suspension density at 50%. This sequence of events was repeated at week two and week three. no media manipulation. The cultures were observed and placed back on the shaker. At week five the embryos were harvested as described in example 6 with the exception of using a 560 μm mesh to wash embryos. Half of the embryos were conditioned as described in example 6 and half were conditioned by the method described in U.S. Application Ser. No. 60/675, 949 simply for comparative purposes.

cell line N = experiment: Effect of maltose on embryo production in liquid EDM, cell line N; settings: maltose 0 to 60 g/l
Description: (§2) Suspension cultures of the following four loblolly pine genotypes, I, B, M, and N, were tested. Each cell line or genotype was initiated from an individual immature seed explant derived from a control pollinated cross of select parent trees of loblolly pine. Five variations in the Liquid EDM listed in Table 1 were tested for development of loblolly pine somatic embryos in liquid. The five treatments were coded 1, 2, 3, 4 and 5 according to the concentration of maltose in the liquid medium, 0, 10, 20, 40 and 60 g/l, respectively. The proliferating embryogenic suspension cultures were poured in the side arm of the flask for 30 minutes to measure the settled cell volume (SCV) as described in example 2. A sub-sample of 12 ml of proliferating liquid suspension was removed for baseline development plating on five plates of MSG gelled embryo development medium for comparative purposes. The SCV measurement was recorded and the proliferating liquid suspensions were distributed among the treatments listed above. […] The SCV measurements were recorded and the flasks were placed on the shaker in the dark, 24° C. growth chamber and monitored on a weekly basis for five weeks as described below. the liquid embryo development suspensions were poured into the sidearm and allowed to settle in the sidearm for 30 minutes and the SCV measured and recorded. […]

cell line M = experiment: Effect of maltose on embryo production in liquid EDM, cell line M; settings: highest (60 g/L) concentration of maltose
Description: as §2

[1] = test system: pine somatic embryos, genotype I; experiment: Germination of embryos developed at varying maltose concentration, genotype I
Description: (§3) In this particular experiment, after the 3 week conditioning treatment, the embryos on the membrane were placed on modMS germination medium in a lighted culture room at 24° C. After 3 to 5 days the embryos were individually removed from the membrane and transferred directly to the surface of modMS germination medium and cultured for an additional 2 weeks in a lighted growth room at 24° C. Embryo germination, which in this particular instance was estimated by identifying the emergence of a root from the embryo that was at least 1 cm long during this 2 week time period. Twenty-nine percent of the embryos harvested from liquid EDM germinated. Embryos were harvested and prepared for germination using two conditioning treatments: (1) exposure to high relative humidity for 3 weeks at 24° C. […] Embryos were then germinated as previously described in Example 5.

cell line I = experiment: Effect of maltose on embryo production in liquid EDM, cell line I; settings: for Total Avg. Potential Embryos: 30 ml
Description: as §1

[2] = test system: pine somatic embryos, genotype B; experiment: Germination of embryos developed at varying maltose concentration, genotype B
Description: as §3

[3] = cell line B, maltose 10 g/l, week 5
[4] = cell line B, maltose 20 g/l, week 5
[5] = cell line B, maltose 40 g/l, week 5
[6] = cell line B, maltose 60 g/l, week 5
[7] = Cond 1: 3 wk HRH, maltose conc. 1%
[8] = Cond 1: 3 wk HRH, maltose conc. 2%
[9] = Cond 1: 3 wk HRH, maltose conc. 4%
[10] = Cond 1: 3 wk HRH, maltose conc. 6%
[11] = Cond 2: 4 wk cold & 3 wk HRH, maltose conc. 1%
[12] = Cond 2: 4 wk cold & 3 wk HRH, maltose conc. 2%
[13] = Cond 2: 4 wk cold & 3 wk HRH, maltose conc. 4%
[14] = Cond 2: 4 wk cold & 3 wk HRH, maltose conc. 6%
[15] = cell line I, maltose 10 g/l, week 5
[16] = cell line I, maltose 20 g/l, week 5
[17] = cell line I, maltose 40 g/l, week 5
[18] = cell line I, maltose 60 g/l, week 5

**Q.** For `OC[C@H]1O[C@H](O[C@H]2[C@H](O)[C@@H](O)C(O)O[C@@H]2CO)[C@H](O)[C@@H](O)[C@@H]1O` (mixture of isomers) [maltose], which “production of fully developed embryos” value (cell line B; cell line B, all liquid EDM treatments that contained maltose (10 to 60 g/l)) is on record?
**A.** Fully developed embryos were produced

**Q.** What about the “Avg. Embryos” value (cell line B; cell line B, maltose 10 g/l) of the same molecule?
**A.** 189 per g tissue

**Q.** And the “Total Avg. Potential Embryos” value (cell line B; cell line B, maltose 10 g/l)?
**A.** 464 per flask

**Q.** What about the “Avg. Embryos” value (cell line B; [3]) of the same molecule?
**A.** 17 per ml

**Q.** And the “Avg. ± st. dev. Embryos harvested” value (cell line B; [3])?
**A.** 232 ± 84 per 15 ml

**Q.** And the “Avg. Embryos” value (cell line B; cell line B, maltose 20 g/l)?
**A.** 218 per g tissue

**Q.** And the “Total Avg. Potential Embryos” value (cell line B; cell line B, maltose 20 g/l)?
**A.** 526 per flask

**Q.** What about the “Avg. Embryos” value (cell line B; [4]) of the same molecule?
**A.** 18 per ml

**Q.** What about the “Avg. ± st. dev. Embryos harvested” value (cell line B; [4]) of the same molecule?
**A.** 263 ± 76 per 15 ml

**Q.** And the “Avg. Embryos” value (cell line B; cell line B, maltose 40 g/l)?
**A.** 165 per g tissue

**Q.** And the “Total Avg. Potential Embryos” value (cell line B; cell line B, maltose 40 g/l)?
**A.** 422 per flask

**Q.** And the “Avg. Embryos” value (cell line B; [5])?
**A.** 15 per ml

**Q.** And the “Avg. ± st. dev. Embryos harvested” value (cell line B; [5])?
**A.** 211 ± 281 per 15 ml

**Q.** What about the “Avg. Embryos” value (cell line B; cell line B, maltose 60 g/l) of the same molecule?
**A.** 89 per g tissue

**Q.** What about the “Total Avg. Potential Embryos” value (cell line B; cell line B, maltose 60 g/l) of the same molecule?
**A.** 240 per flask

**Q.** What about the “Avg. Embryos” value (cell line B; [6]) of the same molecule?
**A.** 8 per ml

**Q.** And the “Avg. ± st. dev. Embryos harvested” value (cell line B; [6])?
**A.** 120 ± 20 per 15 ml

**Q.** What about the “average number of embryos produced per ml of total media used” value (cell line B; line B, across maltose levels from 10 to 60 g/l) of the same molecule?
**A.** 5.6 per ml

**Q.** And the “response to maltose treatments” value (cell line N)?
**A.** did not respond

**Q.** What about the “response to increasing maltose” value (cell line M) of the same molecule?
**A.** producing embryos that had not fully development

**Q.** And the Germination [1, 7]?
**A.** 37%

**Q.** What about the Germination [1, 8] of the same molecule?
**A.** 40%

**Q.** And the Germination [1, 9]?
**A.** 33%

**Q.** And the Germination [1, 10]?
**A.** 19%

**Q.** What about the Germination [1, 11] of the same molecule?
**A.** 21%

**Q.** What about the Germination [1, 12] of the same molecule?
**A.** 55%

**Q.** What about the Germination [1, 13] of the same molecule?
**A.** 48%

**Q.** And the Germination [1, 14]?
**A.** 27%

**Q.** And the “production of fully developed embryos” value (cell line I; cell line I, all liquid EDM treatments that contained maltose (10 to 60 g/l))?
**A.** Fully developed embryos were produced

**Q.** What about the “Avg. Embryos” value (cell line I; cell line I, maltose 10 g/l) of the same molecule?
**A.** 206 per g tissue

**Q.** And the “Total Avg. Potential Embryos” value (cell line I; cell line I, maltose 10 g/l)?
**A.** 464 per flask

**Q.** What about the “Avg. Embryos” value (cell line I; [15]) of the same molecule?
**A.** 16 per ml

**Q.** What about the “Avg. ± st. dev. Embryos harvested” value (cell line I; [15]) of the same molecule?
**A.** 232 ± 14 per 15 ml

**Q.** And the “Avg. Embryos” value (cell line I; cell line I, maltose 20 g/l)?
**A.** 216 per g tissue

**Q.** What about the “Total Avg. Potential Embryos” value (cell line I; cell line I, maltose 20 g/l) of the same molecule?
**A.** 486 per flask

**Q.** What about the “Avg. Embryos” value (cell line I; [16]) of the same molecule?
**A.** 14 per ml

**Q.** What about the “Avg. ± st. dev. Embryos harvested” value (cell line I; [16]) of the same molecule?
**A.** 243 ± 60 per 15 ml

**Q.** And the “Avg. Embryos” value (cell line I; cell line I, maltose 40 g/l)?
**A.** 237 per g tissue

**Q.** What about the “Total Avg. Potential Embryos” value (cell line I; cell line I, maltose 40 g/l) of the same molecule?
**A.** 526 per flask

**Q.** And the “Avg. Embryos” value (cell line I; [17])?
**A.** 16 per ml

**Q.** What about the “Avg. ± st. dev. Embryos harvested” value (cell line I; [17]) of the same molecule?
**A.** 263 ± 22 per 15 ml

**Q.** What about the “Avg. Embryos” value (cell line I; cell line I, maltose 60 g/l) of the same molecule?
**A.** 290 per g tissue

**Q.** What about the “Total Avg. Potential Embryos” value (cell line I; cell line I, maltose 60 g/l) of the same molecule?
**A.** 702 per flask

**Q.** What about the “Avg. Embryos” value (cell line I; [18]) of the same molecule?
**A.** 20 per ml

**Q.** What about the “Avg. ± st. dev. Embryos harvested” value (cell line I; [18]) of the same molecule?
**A.** 351 ± 66 per 15 ml

**Q.** What about the “average number of embryos produced per total volume of medium used (discarded and saved)” value (cell line I; line I, 40 g/l maltose, 70 ml medium) of the same molecule?
**A.** 7.5 embryos per total ml media used

**Q.** And the “average number of embryos produced per ml of total media used” value (cell line I; line I, across maltose levels from 10 to 60 g/l)?
**A.** 8.3 per ml

**Q.** And the Germination [2, 7]?
**A.** 9%

**Q.** What about the Germination [2, 8] of the same molecule?
**A.** 8%

**Q.** And the Germination [2, 9]?
**A.** 8%

**Q.** What about the Germination [2, 10] of the same molecule?
**A.** 41%

**Q.** And the Germination [2, 11]?
**A.** 5%

**Q.** And the Germination [2, 12]?
**A.** 3%

**Q.** And the Germination [2, 13]?
**A.** 24%

**Q.** And the Germination [2, 14]?
**A.** 29%
